According to patent US20130171067A1, “[…]-99m COMPLEX AS A TOOL FOR THE IN VIVO DIAGNOSIS OF CANCEROUS TUMOURS” (PIERRE FABRE MEDICAMENT, priority 2010, published 2013):
Where a name gives a salt, the structure may show the parent alone. One block for each compound: values may come before it.

Experiments:
[1] = tested on: B16/F10 mouse melanoma cells; experiment: Tumour fixation, full-body scintigraphy of mice grafted with B16/F10 tumours (tumour-to-muscle ratio, spermine competition); assay type: in vivo; conditions: protocol of example 30, 1)
Procedure: 10 days post-grafting, the radiolabelled probe was injected into the mice. Imaging was performed according to the protocol described in example 24 above.
B16/F10 mouse melanoma cells (2.5.10^5 cells) were injected subcutaneously in the right back paw of male C57BL/6 mice. 10 days post-grafting, the complex having formula (II) (14.8 MBq) was injected into 18 mice, 400 μg of spermine having been previously injected into 8 of these mice. Full-body scintigraphic images were then produced 30 min and 2 hours post-injection. For this, the mice, anaesthetised with isoflurane gas, were imaged in the ventral decubitus position on a gamma-camera (γ Imager, BIOSPACE Mesures) with IRIS software (Ariès Nucléaire, France) with the following parameters: • Spectral window: 121-164 KeV • Acquisition time: 3 min • Grid: 256*256
For all the images, a region of interest was plotted around the tumour and another of the same size was defined on the muscle of the contralateral paw to determine the tumour-to-muscle ratio.
The study was conducted according to the protocol described in example 30, 1) above with other complexes having formula (II).

[2] = tested on: B16 cells; experiment: In vitro incorporation in cells with spermine competition (gamma counter); assay type: cell-based, mouse; conditions: 30 minutes incubation, 0.2 μM complex, increasing concentration of spermine, FIG. 1
Procedure: (§1) A549 and B16 cells were placed in culture in 24-well plates (2.10^5 cells/well). After 24 hours, the cells were incubated for 30 minutes with the complex having formula (II) at various concentrations or with 0.2 μM of complex having formula (II) optionally in the presence of an increasing concentration of spermine used for evaluating competition with the probe. After incubation, the plates were placed on ice and the cells were rinsed with cold 0.9% NaCl supplemented with 1 mM of spermidine. The cells received a treatment with trypsin. They were suspended in PBS. The activity of each well was measured using a gamma counter.

[3] = mouse, in vivo
[4] = Plasmatic stability after intravenous injection (radio-HPLC of serum); assay type: in vivo, mice
Procedure: 14.8 MBq of complex having formula (II) were injected intravenously to healthy male C57BL/6 mice. 30 minutes, 1 h, 2 h, 3 h and 5 hours post-injection, blood samples on heparin were taken from the retro-orbital cavity. These samples were then centrifuged for 5 minutes to collect at least 100 μL of serum. 50 enabled exclusion-diffusion radio-HPLC on a TSK SW2000 column+7.8*300 mm 5μ pre-column (Tosoh bioscience) with a mobile phase (flow rate of 1. ml/min at ambient temperature) consisting of 0.9% NaCl (100%). Macaque albumin labelled with ^99mTc was used to test the albumin retention time. The remaining 50 μL of serum was used to perform reverse-phase radio-HPLC, after protein denaturation with acetonitrile, on an XBridge C8 4.6*250 mm 5μ column (Waters, USA) with a mobile phase (flow rate of 1 ml/min at ambient temperature) consisting of water (55%), acetonitrile (45%) and TFA (0.1%).

[5] = tested on: A549 cells; experiment: In vitro incorporation in cells with spermine competition (gamma counter); assay type: cell-based; conditions: 30 minutes incubation, 0.2 μM complex, increasing concentration of spermine, FIG. 1
Procedure: as §1

[6] = Biodistribution in healthy mice; conditions: C57BL/6 mice, intravenous, 30 min to 24 hours post-injection

Structure (SMILES): NCCCNCCCCNCCCNC(=O)c1ccc(N[NH][Tc]234([O]CC(CO)(CO)[N]2CC(=O)[O]3)[O]C(=O)C[N]4C(CO)(CO)CO)nc1
- Observations ([1]; B16/F10 tumour in C57BL/6 mice): Tumour fixation
- Effect of spermine on incorporation of the complex [2]: partially inhibits
- Risk of renal toxicity or side-effects due to dosimetry [3]: no risk of renal toxicity or side-effects due to dosimetry
- Proportion of injected complex eliminated ([4]; at 30 minutes after intravenous injection, healthy male C57BL/6 mice): 38%
- Trans-chelation of Technetium on plasma albumin ([4]; from 30 minutes after intravenous injection, exclusion-diffusion radio-HPLC): trans-chelated on the plasma albumin
- Complex stability in plasma ([4]; reverse-phase radio-HPLC of serum, 30 minutes to 5 hours post-injection): good complex stability
- Effect of spermine on incorporation of the complex [5]: partially inhibits
- Distribution in organs [6]: distributed quasi-homogeneously throughout the organs
- Persistence of fixation [6]: only persists in the liver and kidneys

- melting point: 183 °C
Structure (SMILES): NCCCCNCCCNC(=O)c1ccc(NN)nc1 (as salt: hydrochloride) [Example 6, N-[3-(4-amino-butylamino)-propyl]-6-hydrazino-nicotinamide]

- melting point: 237.5 °C
Structure (SMILES): NCCCNCCCCNCCCNC(=O)c1ccc(NNC(=O)C(F)(F)F)nc1 (as salt: hydrochloride) [Example 14, N-{3-[4-(3-amino-propylamino)-butylamino]-propyl}-6-[N′-(2,2,2-trifluoro-acetyl)-hydrazino]-nicotinamide]

Structure (SMILES): NCCCCNC(=O)c1ccc(NN)nc1 [Example 3, N-(4-Amino-butyl)-6-hydrazino-nicotinamide]
- Tumour-to-muscle ratio compared with the other compounds [1]: lower than with the other compounds

Structure (SMILES): NCCCCNCCCNC(=O)c1ccc(NN)nc1 [Example 6, N-[3-(4-amino-butylamino)-propyl]-6-hydrazino-nicotinamide]
- Tumour-to-muscle ratio compared with the other compounds [1]: lower than with the other compounds
